Measured values taken from patent publication EP3284739A1, “SUBSTITUTED (HET) ARYL COMPOUNDS AS PESTICIDES” (Bayer CropScience Aktiengesellschaft, priority 2017, dated 2018).

How the values were obtained:
Phaedon cochleariae = Phaedon cochleariae spray test (Chinese cabbage leaf discs, larvae); assay type: in vivo; conditions: foliar, 168 h, read-out: Wirkung
Excerpt: (§1) Zur Herstellung einer zweckmäßigen Wirkstoffzubereitung löst man 1 Gewichtsteil Wirkstoff mit den angegebenen Gewichtsteilen Lösungsmittel und füllt mit Wasser, welches eine Emulgatorkonzentration von 1000 ppm enthält, bis zum Erreichen der gewünschten Konzentration auf. Zur Herstellung weiterer Testkonzentrationen wird mit emulgatorhaltigem Wasser verdünnt.
Chinakohlblattscheiben (Brassica pekinensis) werden mit einer Wirkstoffzubereitung der gewünschten Konzentration gespritzt und nach dem Abtrocknen mit Larven des Meerrettichblattkäfers (Phaedon cochleariae) besetzt.
Nach 7 Tagen wird die Wirkung in % bestimmt. Dabei bedeutet 100 %, dass alle Käferlarven abgetötet wurden; 0 % bedeutet, dass keine Käferlarven abgetötet wurden.

Spodoptera frugiperda = Spodoptera frugiperda spray test (maize leaf discs, caterpillars); assay type: in vivo; conditions: foliar, 168 h, Aufwandmenge 500g/ha, after 7 days, read-out: Wirkung
Excerpt: as §1
Maisblattscheiben (Zea mays) werden mit einer Wirkstoffzubereitung der gewünschten Konzentration gespritzt und nach dem Abtrocknen mit Raupen des Heerwurms (Spodoptera frugiperda) besetzt.
Nach 7 Tagen wird die Wirkung in % bestimmt. Dabei bedeutet 100 %, dass alle Raupen abgetötet wurden; 0 % bedeutet, dass keine Raupe abgetötet wurde.

Ctenocephalides felis = Ctenocephalides felis oral test (feeding on treated citrated cattle blood); assay type: in vivo; conditions: 48 h, Aufwandmenge 100ppm, after 2 days, read-out: Wirkung (Abtötung)
Procedure: Zwecks Herstellung einer zweckmäßigen Wirkstoffzubereitung vermischt man 10 mg Wirkstoff mit 0,5 ml Dimethylsulfoxid. Durch Verdünnen mit citriertem Rinderblut erhält man die gewünschte Konzentration.
Ca. 20 nüchterne adulte Katzenflöhe (Ctenocephalides felis) werden in eine Kammer eingesetzt, die oben und unten mit Gaze verschlossen ist. Auf die Kammer wird ein Metallzylinder gestellt, dessen Unterseite mit Parafilm verschlossen ist. Der Zylinder enthält die Blut-Wirkstoffzubereitung, die von den Flöhen durch die Parafilmmembran aufgenommen werden kann.
Nach 2 Tagen wird die Abtötung in % bestimmt. Dabei bedeutet 100 %, dass alle Flöhe abgetötet wurden; 0 % bedeutet, dass keiner der Flöhe abgetötet wurde.

[1] = logP by reversed-phase HPLC (LC-MS), neutral range; assay type: physicochemical; conditions: c18 hplc, ammonium bicarbonate/acetonitrile; pH 7.8, 0,001 molar aqueous Ammoniumhydrogencarbonat / Acetonitril, C 18, 55°C
Procedure: Die Messung der logP Werte erfolgt gemäß EEC Directive 79/831 Annex V.A8 durch HPLC (High Performance Liquid Chromatography) an einer Phasenumkehrsäule (C 18). Temperatur: 55°C. Die Bestimmung mit der LC-MS im sauren Bereich erfolgt bei pH 2,7 mit 0,1 % wässriger Ameisensäure und Acetonitril (enthält 0,1% Ameisensäure) als Eluenten; linearer Gradient von 10% Acetonitril bis 95% Acetonitril. In der Tabelle logP (HCOOH) genannt.
Die Bestimmung mit der LC-MS im neutralen Bereich erfolgt bei pH 7.8 mit 0,001 molarer wässriger Ammoniumhydrogencarbonat-Lösung und Acetonitril als Eluenten; linearer Gradient von 10 % Acetonitril bis 95 % Acetonitril. In der Tabelle logP (neutral) genannt.
Die Eichung erfolgt mit unverzweigten Alkan-2-onen (mit 3 bis 16 Kohlenstoffatomen), deren logP-Werte bekannt sind (Bestimmung der logP-Werte anhand der Retentionszeiten durch lineare Interpolation zwischen zwei aufeinander folgenden Alkanonen).

chromatographic logP [1]	SMILES	mortality at 500 g/ha (Phaedon cochleariae) [%]	mortality at 500 g/ha (Spodoptera frugiperda) [%]	mortality at 100 µg/mL (Ctenocephalides felis) [%]
–	CC(C)C(=O)Nc1cc(-c2ccc(C(F)(F)C(F)(F)F)c(F)c2)cc(NC(=O)C2CC2)n1 [I-054]	100	100	–
–	CC1(C(=O)Nc2cc(-c3ccc(OC(F)(F)F)cc3)cc(NC(=O)C3CC3)n2)CC1 [I-004]	100	100	100
–	N#Cc1ccc(CC(=O)Nc2cc(NC(=O)C3CC3)cc(-c3ccc(C(F)(F)C(F)(F)F)c(F)c3)c2)cc1 [I-061]	–	83	–
2.79	Nc1cc(-c2ccc(OC(F)(F)F)cc2)cc(NC(=O)C2CC2)n1 [N-{6-Amino-4-[4-(trifluormethoxy)phenyl]pyridin-2-yl}cyclopropancarboxamid]	–	–	–
–	N#CCCC(=O)Nc1cc(-c2ccc(OC(F)(F)F)cc2)cc(NC(=O)C2CC2)n1 [I-025]	83	100	–
–	CC(C)(C(=O)Nc1cc(-c2ccc(OC(F)(F)F)cc2)cc(NC(=O)C2CC2)n1)c1ccccc1 [I-010]	100	–	–
–	O=C(Nc1cc(-c2cc(F)c(C(F)(F)C(F)(F)F)c(F)c2F)cc(NC(=O)C2CC2)n1)C1CC1 [I-047]	–	83	–
–	O=C(Nc1cc(-c2ccc(OC(F)(F)F)cc2)c(Cl)c(NC(=O)C2CC2)n1)C1CC1 [I-038]	–	83	–
–	CCC(=O)Nc1cc(-c2ccc(OC(F)(F)F)cc2)cc(NC(=O)C2CC2)n1 [I-020]	100	100	–
2.35	O=C(Nc1cc(Br)cc(NC(=O)C2CC2)n1)C1CC1 [N,N'-(4-Brompyridin-2,6-diyl)dicyclopropancarboxamid]	–	–	–
3.66	CN(C(=O)C1CC1)c1cc(-c2ccc(OC(F)(F)F)cc2)cc(NC(=O)C2CC2)n1 [I-31, N-{6-[(Cyclopropylcarbonyl)amino]-4-[4-(trifluormethoxy)phenyl]pyridin-2-yl}-N-methylcyclopropancarboxamid]	–	–	–
–	O=C(Nc1cc(-c2ccc(OC(F)(F)F)cc2)cc(NC(=O)C2(Cl)CC2)n1)C1CC1 [I-013]	–	100	–
–	CCCC(=O)Nc1cc(-c2ccc(OC(F)(F)F)cc2)cc(NC(=O)C2CC2)n1 [I-023]	100	100	100
–	O=C(Nc1cc(-c2ccc(C(F)(F)C(F)(F)F)c(Cl)c2)cc(NC(=O)C2CC2)n1)C1CC1 [I-046]	100	100	100
–	CC(=O)Nc1cc(-c2ccc(C(F)(F)C(F)(F)F)c(F)c2)cc(NC(=O)C2CC2)n1 [I-056]	100	100	–
–	CC(=O)Nc1cc(-c2ccc(C(F)(F)C(F)(F)F)c(F)c2)cc(NC(C)=O)n1 [I-059]	100	100	–
–	CC(C)C(=O)Nc1cc(NC(=O)C(C)C)cc(-c2ccc(C(F)(F)C(F)(F)F)c(F)c2)c1 [I-051]	100	100	100
–	N#CC1(C(=O)Nc2cc(-c3ccc(OC(F)(F)F)cc3)cc(NC(=O)C3CC3)n2)CC1 [I-005]	83	100	100
1.46	Nc1cc(Br)c(Cl)c(N)n1 [4-Brom-3-chlorpyridin-2,6-diamin]	–	–	–
–	O=C(Cc1ccc(C(F)(F)F)cc1)Nc1cc(-c2ccc(OC(F)(F)F)cc2)cc(NC(=O)C2CC2)n1 [I-002]	–	100	–
–	O=C(Nc1cc(-c2ccc(OC(F)(F)F)cc2)cc(NC(=O)C2CC2)n1)c1ccccc1 [I-026]	83	100	100
–	CC(=O)Nc1cc(-c2ccc(OC(F)(F)F)cc2)cc(NC(=O)C2CC2)n1 [I-022]	100	100	100
–	Cc1cc(-c2cc(NC(=O)C3CC3)nc(NC(=O)C3CC3)c2)ccc1C(F)(F)C(F)(F)F [I-043]	100	100	100
–	CC(C)(C(=O)Nc1cc(-c2ccc(OC(F)(F)F)cc2)cc(NC(=O)C2CC2)n1)C(F)(F)F [I-016]	100	100	–
